Assay results as given in patent publication US11406720B2, “Fibroblast growth factor receptor 2-specific peptide reagents and methods” (THE REGENTS OF THE UNIVERSITY OF MICHIGAN, priority 2017, dated 2022).
“Also recorded” adds a separate entry of the source. Where no end group is shown, it is not given here.

Key:
[1] = molecular target: T1, QhTERT cells that express FGFR2c (Homo sapiens, UniProt P21802); experiment: Competition for reagent binding with unlabeled peptide (confocal microscopy); settings: unlabeled peptide 50 μM and greater (up to 500 μM) vs 0 μM; 5 μM SRR*-Cy5.5; 4° C
T1 construct: expressed in transfected cells; host or cells: QhTERT (human non-dysplastic Barrett's esophagus cells immortalized with hTert)
T1 sequence (P21802 22-821): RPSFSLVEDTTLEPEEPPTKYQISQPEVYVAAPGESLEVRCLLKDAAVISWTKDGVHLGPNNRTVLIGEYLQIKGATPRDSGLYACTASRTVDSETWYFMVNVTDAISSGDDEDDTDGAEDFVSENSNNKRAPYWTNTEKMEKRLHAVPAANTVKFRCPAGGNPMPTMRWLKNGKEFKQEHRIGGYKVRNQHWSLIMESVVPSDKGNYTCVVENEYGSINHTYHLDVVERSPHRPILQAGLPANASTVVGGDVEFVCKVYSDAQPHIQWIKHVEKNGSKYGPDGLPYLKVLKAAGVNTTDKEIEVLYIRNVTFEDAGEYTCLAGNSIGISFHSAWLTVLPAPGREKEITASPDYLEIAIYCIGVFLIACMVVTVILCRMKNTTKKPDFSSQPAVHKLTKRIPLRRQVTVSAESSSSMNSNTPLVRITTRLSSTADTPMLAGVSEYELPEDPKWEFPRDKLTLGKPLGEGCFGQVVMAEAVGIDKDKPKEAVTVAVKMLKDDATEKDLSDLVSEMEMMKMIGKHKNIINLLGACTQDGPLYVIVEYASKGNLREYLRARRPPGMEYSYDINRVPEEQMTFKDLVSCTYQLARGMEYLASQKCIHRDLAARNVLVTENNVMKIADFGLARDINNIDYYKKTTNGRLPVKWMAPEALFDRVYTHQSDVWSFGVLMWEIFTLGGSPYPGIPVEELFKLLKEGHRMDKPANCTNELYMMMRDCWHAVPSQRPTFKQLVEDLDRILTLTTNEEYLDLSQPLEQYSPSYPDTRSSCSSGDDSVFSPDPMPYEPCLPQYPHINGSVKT
Experimental: We administered unlabeled SRR*, and used confocal microscopy to observe competition for binding of SRR*-Cy5.5 to QhTERT cells that express FGFR2c, FIG. 3A-L. Approximately 10^3 cells were grown to ˜70% confluence on cover glass in triplicate. Unlabeled peptides at concentrations of 0, 50, 100, 150, 250, and 500 μM were incubated with the cells for 30 min at 4° C. The cells were washed and incubated with 5 μM of the target peptide for another 30 min at 4° C. The cells were washed and fixed with 4% PFA for 5 min. The cells were washed with PBS and mounted with ProLong Gold reagent containing DAPI (Invitrogen).

[2] = molecular target: T1, QhTERT cells that express FGFR2c; experiment: Apparent association time constant by flow cytometry; type: binding; settings: for apparent association time constant k: 5 μM, RT, 0 to 30 min; for time scale for onset of binding: from k
Experimental: We measured the apparent association time constant of the peptide reagent to QhTERT/FGFR2c cells to assess binding onset.^46 Cells were grown to ˜80% confluence in 10 cm dishes, and detached with PBS-based cell dissociation buffer (Invitrogen). Cells (˜10^5) were incubated with 5 μM SRR-Cy5.5 at RT for various time intervals ranging from 0 to 30 min. The cells were centrifuged, and washed with cold PBS. Flow cytometry analysis was performed as described above, and the median fluorescence intensity (y) were measured on flow cytometry at different time points (t) using Flowjo software. The rate constant k was calculated by fitting the data to a first order kinetics model, y(t)=Imax[1−exp^(−kt)], where Imax=maximum value using Prism 5.0 software (GraphPad Inc).

[3] = system: phosphorylation of FGFR2 (p-FGFR), AKT (p-AKT) and ERK (p-ERK) in QhTERT cells that express FGFR2b; experiment: Effect on cell signaling, Western blot, FGFR2b cells; type: cell-based, human; settings: peptide 5 or 100 μM, FGF1 100 ng/mL, 20 min, vs untreated cells
Experimental: (§1) QhTERT cells that overexpress either FGFR2b or FGFR2c were seeded in 12-well flat-bottom plates with 500 μL of serum-free medium for 16 hours. FGF1 (#2232-FA-025, R&D systems) was reconstituted to a concentration of 100 μg/mL using PBS, diluted with 0.1% bovine serum albumin, and added to the cells at final concentrations of 100 ng/mL for 20 min in separate wells. Heparin (#H3149-10KU, Sigma) with final concentration of 100 unit/mL was also added to increase stability. In addition, peptides at concentrations of 5 and 100 μM were incubated for 20 min in separate wells. The cells were washed with PBS and lysed in RIPA buffer containing protease inhibitors (#11836170001, Roche, Basel, Switzerland). Lysates were separated by gel electrophoresis, transferred to polyvinylidene difluoride membranes (#ISEQ00010, Millipore), and detected by immunoblotting using an enhanced chemiluminescence system (#RPN2106, GE Healthcare). Anti-FGFR2 antibody (#SC 122, Santa Cruz Biotechnology), anti-phospho-FGFR (#3471, Cell Signaling Technology), anti-AKT (#4691P, Cell Signaling Technology), anti-ERK1/2 (#4695P, Cell Signaling Technology), anti-phospho-AKT (pS473; #4060P, Cell Signaling Technology), anti-phospho-ERK1/2 (#4370P, Cell Signaling Technology), and anti-tubulin (#32-2600, Invitrogen) were used as per manufacturer's instructions.

[4] = system: phosphorylation of FGFR2 (p-FGFR), AKT (p-AKT) and ERK (p-ERK) in QhTERT cells that express FGFR2c; experiment: Effect on cell signaling, Western blot, FGFR2c cells; type: cell-based, human; settings: peptide 5 or 100 μM, FGF1 100 ng/mL, 20 min, vs untreated cells
Experimental: as §1

[5] = molecular target: T2, QhTERT cells that express FGFR2b (Homo sapiens, UniProt P21802); experiment: Confocal fluorescence microscopy, binding to QhTERT cells expressing FGFR2b
T2 construct: expressed in transfected cells; host or cells: QhTERT (human non-dysplastic Barrett's esophagus cells immortalized with hTert)
T2 sequence (P21802 22-822 isoform P21802-3 limits assumed): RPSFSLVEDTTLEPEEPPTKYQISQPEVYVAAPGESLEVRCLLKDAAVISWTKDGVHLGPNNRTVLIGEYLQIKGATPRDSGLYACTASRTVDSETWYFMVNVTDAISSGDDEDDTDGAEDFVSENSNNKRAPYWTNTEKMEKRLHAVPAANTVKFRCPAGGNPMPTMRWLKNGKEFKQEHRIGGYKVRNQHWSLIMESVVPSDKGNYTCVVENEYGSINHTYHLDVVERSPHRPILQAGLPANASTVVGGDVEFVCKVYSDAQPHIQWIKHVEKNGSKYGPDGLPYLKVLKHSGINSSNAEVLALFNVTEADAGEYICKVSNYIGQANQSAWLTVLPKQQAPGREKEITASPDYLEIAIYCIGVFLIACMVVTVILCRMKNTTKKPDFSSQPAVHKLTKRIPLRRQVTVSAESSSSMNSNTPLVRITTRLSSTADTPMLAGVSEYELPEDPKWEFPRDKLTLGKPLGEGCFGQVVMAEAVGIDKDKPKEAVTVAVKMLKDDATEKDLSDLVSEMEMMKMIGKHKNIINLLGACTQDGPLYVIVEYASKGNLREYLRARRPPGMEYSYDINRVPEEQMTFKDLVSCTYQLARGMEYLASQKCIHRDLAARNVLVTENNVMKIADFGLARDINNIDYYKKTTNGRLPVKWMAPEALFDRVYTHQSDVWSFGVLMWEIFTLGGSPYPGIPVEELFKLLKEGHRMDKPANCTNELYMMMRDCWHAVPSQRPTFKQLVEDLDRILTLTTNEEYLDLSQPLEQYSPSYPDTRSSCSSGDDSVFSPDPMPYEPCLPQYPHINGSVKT
Excerpt: (§2) All human esophagus specimens were obtained with written, informed patient consent per approval and guidelines of the University of Michigan Institutional Review Board (IRB). Human non-dysplastic Barrett's esophagus (BE) cells immortalized with hTert (QhTERT) were obtained from the American Type Culture Collection (ATCC) and cultured in keratinocyte-serum free medium containing bovine pituitary extract and human recombinant EGF (ThermoFisher #17005042). QhTERT cells with stable expression of FGFR2b or FGFR2c were provided by DGB. We cultured these cells with keratinocyte-serum free medium containing bovine pituitary extract and human recombinant EGF (ThermoFisher #17005042) and added 1 μg/mL of puromycin-dihydrochloride (Invitrogen #A11138-03). All cells were cultured at 37° C. in 5% CO2, and were passaged using 0.25% EDTA containing trypsin (Mediatech Inc). A hemocytometer was used to count the cell number. Peptide synthesis reagents were obtained from either Anaspec or AAPPTEC with the highest grade available (>99% purity) and used without further purification. Solvents and other chemical reagents were obtained from Sigma-Aldrich, unless otherwise stated.
(§3) On confocal microscopy, we validated specific peptide reagent binding to human BE cells that express FGFR2.

[6] = molecular target: T1, QhTERT cells that express FGFR2c; experiment: Confocal fluorescence microscopy, binding to QhTERT cells expressing FGFR2c
Excerpt: as §2, §3

QhTERT cells wild type = experiment: Confocal fluorescence microscopy, binding to wild-type QhTERT cells; design: species or system human
Excerpt: as §2, §3

[7] = molecular target: T1, QhTERT cells that express FGFR2c; experiment: Apparent dissociation constant by flow cytometry; type: binding; settings: 0 to 200 nM, 4° C, 1 hour
Experimental: We measured the apparent dissociation constant kd for peptide reagent binding to cells to assess binding affinity.^45 The Cy5.5-labeled peptide reagent was serially diluted in PBS at concentrations ranging from 0 to 200 nM in 25 nM increments. QhTERT/FGFR2c cells (˜10^5) were incubated with peptide at 4° C. for 1 hour, washed with cold PBS, and the mean fluorescence intensities were measured using flow cytometry. The equilibrium dissociation constant kd=1/ka was calculated by performing a least squares fit of the data to the non-linear equation I=(I0+Imaxka[X])/([…]). I0 and Imax are the initial and maximum fluorescence intensities, corresponding to no peptide and at saturation, respectively, and [X] represents the concentration of the bound peptide reagent. Prism 5.0 software (GraphPad Inc) was used to calculate kd.

[8] = system: human esophageal specimens (SQ, BE, HGD, EAC); experiment: Confocal microscopy staining of sections of human esophagus ex vivo; type: binding
Experimental: Formalin-fixed sections of human esophageal specimens were deparaffinized, and antigen retrieval was performed using standard methods. Briefly, the sections were incubated in xylene for 3 min 3×, washed with 100% ethanol for 2 min 2×, and washed with 95% ethanol for 2 min 2×. Rehydration was performed by washing in dH2O for 5 min 2×. Antigen unmasking was performed by boiling the slides in 10 mM sodium citrate buffer with 0.05% Tween at pH 6.0, and then maintaining at sub-boiling temperature for 15 min. The slides were cooled for 30 min, and the sections were washed in dH2O for 3 min 3× and in PBS for 5 min. Blocking was performed with DAKO protein blocking agent (X0909, DAKO) for 1 hour at RT. The peptides were incubated at a concentration of 1 μM for 10 min at RT. The sections were washed in PBS for 3 min 3×, and incubated with 1:1000 dilution of monoclonal anti-FGFR2 (Abcam, ab58201) overnight at 4° C.
The sections were then washed in PBS for 5 min 3×. A 1:500 dilution of AF488-labeled secondary antibody (goat anti-mouse) was added to each section and incubated for 30 min at RT. The secondary antibody solution was removed by washing with PBS for 5 min 3×. The sections were then mounted with ProLong Gold reagent containing DAPI (Invitrogen). The mean fluorescence intensities from 3 boxes (dimensions of […]) located completely within the surface epithelium of each specimen were measured. […] Serial sections were processed for routine histology (H&E), and were reviewed by an expert gastrointestinal pathologist (HDA).

[9] = system: sections of human esophageal squamous cell cancer (SCC); experiment: Confocal microscopy staining of human esophageal squamous cell carcinoma sections ex vivo; type: binding
Excerpt: We observed good co-localization of peptide reagent and antibody binding on merged images, FIG. 10C. Representative histology (H&E) for SCC is shown, FIG. 10D.

[10] = system: sections of human gastric cancer; experiment: Confocal microscopy staining of human gastric cancer sections ex vivo; type: binding
Excerpt: We observed good co-localization of peptide and antibody binding on merged images, FIG. 11C. Representative histology (H&E) for gastric cancer is shown, FIG. S6D.

Molecule: C[C@H](NC(=O)[C@@H](NC(=O)[C@H](CCCNC(=N)N)NC(=O)[C@H](Cc1ccccc1)NC(=O)[C@H](CO)NC(=O)[C@H](C)NC(=O)[C@@H]1CCCN1C(=O)[C@H](CCCNC(=N)N)NC(=O)[C@H](CCCNC(=N)N)NC(=O)[C@@H](N)CO)[C@@H](C)O)C(=O)N[C@@H](CCCNC(=N)N)C(=O)N[C@@H](CCC(=O)O)C(N)=O (relative stereo) [SRR*, SRRPASFRTARE]
- change in binding (mean fluorescence intensity) of SRR*-Cy5.5 on addition of unlabeled peptide [1]: significant reduction; also recorded: significant decrease
- apparent association time constant k [2]: 0.16 min⁻¹
- time scale for onset of binding [2]: 6.2 min
- phosphorylation of FGFR2 (p-FGFR), AKT (p-AKT) and ERK (p-ERK) [3]: no obvious change
- phosphorylation of FGFR2 (p-FGFR), AKT (p-AKT) and ERK (p-ERK) [4]: no obvious change

Molecule: FGF1: FGF1 (#2232-FA-025, R&D systems), positive control that binds FGFR2b and FGFR2c [reference compound]
- phosphorylation of FGFR2 (p-FGFR), AKT (p-AKT) and ERK (p-ERK) [3]: to some extent; also recorded: shows phosphorylation activity
- phosphorylation of FGFR2 (p-FGFR), AKT (p-AKT) and ERK (p-ERK) [4]: strong phosphorylation activity; also recorded: shows phosphorylation activity

Molecule: SPS*-Cy5.5: scrambled sequence SPSRERTFRARA for control, labeled with Cy5.5 via a GGGSK linker (SPSRERTFRARAGGGS-{K(Cy5.5)-NH2}) [reference compound]
- binding signal on cell surface (confocal microscopy) [5]: Minimal binding; also recorded: Minimal signal
- binding signal on cell surface (confocal microscopy) [6]: Minimal binding; also recorded: Minimal signal
- binding signal on cell surface (confocal microscopy) (QhTERT cells wild type): Minimal binding; also recorded: Minimal signal

Molecule: SPSRERTFRARA [SPS*, unlabeled scrambled peptide used for control, reference compound]
- change in binding (mean fluorescence intensity) of SRR*-Cy5.5 on addition of unlabeled peptide [1]: No significant difference; also recorded: Non-significant differences

Molecule: SRR*-Cy5.5: 12 amino acid sequence SRRPASFRTARE with fluorophore Cy5.5 attached via a GGGSK linker on the C-terminus (not fully specified (C-terminus))
- binding signal on cell surface (confocal microscopy) [5]: strong signal; also recorded: strong binding
- mean fluorescence intensity versus control SPS*-Cy5.5 ([5]; compared with wild-type): significantly greater
- binding signal on cell surface (confocal microscopy) [6]: strong signal; also recorded: strong binding
- mean fluorescence intensity versus control SPS*-Cy5.5 ([6]; compared with wild-type): significantly greater
- binding signal on cell surface (confocal microscopy) (QhTERT cells wild type): minimal signal
- Kd [7]: 0.068 µM
- apparent association time constant k [2]: 0.16 min⁻¹
- time scale for onset of binding [2]: ~6.2 min
- mean target-to-background (T/B) ratio for HGD and EAC versus BE and SQ ([8]; 3 boxes of 30×30 μm^2): significantly higher
- staining (fluorescence intensity) of section ([8]; Barrett's esophagus (BE)): minimal fluorescence intensity; also recorded: minimal staining
- staining (fluorescence intensity) of section ([8]; esophageal adenocarcinoma (EAC)): strong signal; also recorded: strong binding
- staining (fluorescence intensity) of section ([8]; high-grade dysplasia (HGD)): strong signal; also recorded: strong binding
- mean fluorescence intensity from HGD and EAC compared with BE ([8]; n=28, 33, 22, 17 specimens of SQ, BE, HGD, EAC): significantly greater
- staining (fluorescence intensity) of section ([8]; squamous (SQ)): minimal fluorescence intensity; also recorded: minimal staining
- staining (fluorescence intensity) of section ([9]; human esophageal SCC): strong fluorescence intensity; also recorded: strong binding
- staining (fluorescence intensity) of section ([9]; normal human esophagus): minimal fluorescence intensity; also recorded: minimal staining
- mean fluorescence intensity from SCC versus normal ([9]; paired, two-sided t-test): significantly greater
- staining (fluorescence intensity) of section ([10]; human gastric cancer): strong fluorescence intensity; also recorded: strong binding
- staining (fluorescence intensity) of section ([10]; normal human stomach): minimal fluorescence intensity; also recorded: minimal staining
- mean fluorescence intensity from gastric cancer versus normal ([10]; paired, two-sided t-test): significantly greater
